The numbers were not newly measured in patent publication US20240043928A1, “BIOMARKERS FOR MYELODYSPLASTIC SYNDROME (MDS) AND METHODS OF USING THE SAME” (Eisai R&D Management Co., Ltd., priority 2020, published 2024), which cites them from elsewhere.

SMILES strings stand for the structures.

The conditions of the data set: subjects of a prior phase 1 trial; cited from earlier work.

`CC[C@H](O)[C@@H](C)[C@H]1O[C@@H]1C[C@@](C)(O)/C=C/C=C(\C)[C@H]1OC(=O)C[C@H](O)CC[C@@](C)(O)[C@@H](OC(=O)N2CCN(C3CCCCCC3)CC2)/C=C/[C@@H]1C` [Compound E7107]: the visual loss result is recorded as “visual loss was observed”.
